# Biological target: σ1 receptor and the μ-opiod receptor
# Assay: μ and σ1 dual binding: combined class from the Ki of both radioligand assays
# Design: species or system human; key to μ and σ1 dual binding: +: Both Ki-μ and Ki-σ1>=500 nM; ++: One Ki<500 nM while the other Ki is >=500 nM; +++: Both Ki-μ and Ki-σ1<500 nM; ++++: Both Ki-μ and Ki-σ1<100 nM
# Settings: transfected HEK-293 membranes (σ1), transfected CHO-K1 cell membranes (μ); for μ and σ1 dual binding: combined class for Ki-μ and Ki-σ1
# Description: To investigate binding properties of σ1 receptor ligands to human σ1 receptor, transfected HEK-293 membranes and [^3H](+)-pentazocine (Perkin Elmer, NET-1056), as the radioligand, were used. The assay was carried out with 7 μg of membrane suspension, 5 nM of [^3H](+)-pentazocine in either absence or presence of either buffer or 10 μM Haloperidol for total and non-specific binding, respectively. Binding buffer contained Tris-HCl 50 mM at pH 8. Plates were incubated at 37° C. for 120 minutes. After the incubation period, the reaction mix was then transferred to MultiScreen HTS, FC plates (Millipore), filtered and plates were washed 3 times with ice-cold 10 mM Tris-HCL (pH7.4). Filters were dried and counted at approximately 40% efficiency in a MicroBeta scintillation counter (Perkin-Elmer) using EcoScint liquid scintillation cocktail
# To investigate binding properties of mu-opioid receptor ligands to human μ-opioid receptor, transfected CHO-K1 cell membranes and [^3H]-DAMGO (Perkin Elmer, ES-542-C), as the radioligand, were used. The assay was carried out with 20 μg of membrane suspension, 1 nM of [^3H]-DAMGO in either absence or presence of either buffer or 10 μM Naloxone for total and non-specific binding, respectively. Binding buffer contained Tris-HCl 50 mM, MgCl2 5 mM at pH 7.4. Plates were incubated at 27° C. for 60 minutes. After the incubation period, the reaction mix was then transferred to MultiScreen HTS, FC plates (Millipore), filtered and plates were washed 3 times with ice-cold 10 mM Tris-HCL (pH 7.4). Filters were dried and counted at approximately 40% efficiency in a MicroBeta scintillation counter (Perkin-Elmer) using EcoScint liquid scintillation cocktail.
# The following scale as been adopted for representing the binding to the σ1 receptor and the μ-opiod receptor expressed as Ki: • + Both Ki-μ and Ki-σ1>=500 nM • ++ One Ki<500 nM while the other Ki is >=500 nM • +++ Both Ki-μ and Ki-σ1<500 nM • ++++ Both Ki-μ and Ki-σ1<100 nM
smiles,measurement,value
"CC(c1ccccn1)n1cc(CN2CCC(c3cccc(O)c3)CC2)nn1 (stereo not shown) [Example 75, 3-(1-((1-(1-(pyridin-2-yl)ethyl)-1H-1,2,3-triazol-4-yl)methyl)piperidin-4-yl)phenol]",Ki range for both μ and σ1 (dual-binding class),< 0.5 µM
"Oc1cccc(C2CCN(Cc3cn(-c4cccnc4)nn3)CC2)c1 [Example 10, 3-(1-((1-(pyridin-3-yl)-1H-1,2,3-triazol-4-yl)methyl)piperidin-4-yl)phenol]",Ki range for both μ and σ1 (dual-binding class),< 0.5 µM
"CCC(=O)Nc1cccc(C2CCN(Cc3cn(Cc4ccccc4)nn3)CC2)n1 [Example 199, N-(6-(1-((1-benzyl-1H-1,2,3-triazol-4-yl)methyl)piperidin-4-yl)pyridin-2-yl)propionamide]",μ and σ1 dual binding,++
"Oc1cccc(C2CCN(Cc3cn(Cc4ncccc4F)nn3)CC2)c1 [Example 134, 3-(1-((1-((3-fluoropyridin-2-yl)methyl)-1H-1,2,3-triazol-4-yl)methyl)piperidin-4-yl)phenol]",Ki range for both μ and σ1 (dual-binding class),< 0.5 µM
"CS(=O)(=O)Nc1cccc(C2CCN(Cc3cn([C@@H]4Cc5ccccc5[C@@H]4O)nn3)CC2)c1 [Example 97, N-(3-(1-((1-((1S,2R)-1-hydroxy-2,3-dihydro-1H-inden-2-yl)-1H-1,2,3-triazol-4-yl)methyl)piperidin-4-yl)phenyl)methanesulfonamide]",μ and σ1 dual binding,++
"CC(C)S(=O)(=O)Nc1cccc(C2CCN(Cc3cn(Cc4ccc(C(F)(F)F)cn4)nn3)CC2)c1 [Example 122, N-(3-(1-((1-((5-(trifluoromethyl)pyridin-2-yl)methyl)-1H-1,2,3-triazol-4-yl)methyl)piperidin-4-yl)phenyl)propane-2-sulfonamide]",μ and σ1 dual binding,++
"CS(=O)(=O)Nc1cc(F)cc(C2CCN(Cc3cn(-c4ccccc4)nn3)CC2)c1 [Example 35, N-(3-fluoro-5-(1-((1-phenyl-1H-1,2,3-triazol-4-yl)methyl)piperidin-4-yl)phenyl)methanesulfonamide]",Ki range for both μ and σ1 (dual-binding class),< 0.1 µM
"Oc1cccc(C2CCN(Cc3cn(-c4ccccn4)nn3)CC2)c1 [Example 84, 3-(1-((1-(pyridin-2-yl)-1H-1,2,3-triazol-4-yl)methyl)piperidin-4-yl)phenol]",Ki range for both μ and σ1 (dual-binding class),< 0.1 µM
"COc1c(NS(C)(=O)=O)cccc1C1CCN(Cc2cn(-c3ccccc3)nn2)CC1 [Example 101, N-(2-methoxy-3-(1-((1-phenyl-1H-1,2,3-triazol-4-yl)methyl)piperidin-4-yl)phenyl)methanesulfonamide]",Ki range for both μ and σ1 (dual-binding class),< 0.5 µM
"Oc1cccc(C2CCN(Cc3cn(Cc4cc(C(F)(F)F)ccn4)nn3)CC2)c1 [Example 160, 3-(1-((1-((4-(trifluoromethyl)pyridin-2-yl)methyl)-1H-1,2,3-triazol-4-yl)methyl)piperidin-4-yl)phenol]",Ki range for both μ and σ1 (dual-binding class),< 0.1 µM
"CC(C)n1cc(CN2CCC(c3cccc(O)c3)CC2)nn1 [Example 23, 3-(1-((1-isopropyl-1H-1,2,3-triazol-4-yl)methyl)piperidin-4-yl)phenol]",Ki range for both μ and σ1 (dual-binding class),< 0.5 µM
"Oc1cccc(C2CCN(Cc3cn(-c4ccccc4)nn3)CC2)n1 [Example 198, 6-(1-((1-phenyl-1H-1,2,3-triazol-4-yl)methyl)piperidin-4-yl)pyridin-2-ol]",Ki range for both μ and σ1 (dual-binding class),≥ 0.5 µM
"CC(=O)Nc1cccc(C2CCN(Cc3cn(-c4ccccc4)nn3)CC2)c1 [Example 9, N-(3-(1-((1-phenyl-1H-1,2,3-triazol-4-yl)methyl)piperidin-4-yl)phenyl)acetamide]",Ki range for both μ and σ1 (dual-binding class),< 0.5 µM
"CS(=O)(=O)Nc1cccc(C2CCN(Cc3cn(C4CCc5ccccc54)nn3)CC2)c1 (stereo not shown) [Example 48, N-(3-(1-((1-(2,3-dihydro-1H-inden-1-yl)-1H-1,2,3-triazol-4-yl)methyl)piperidin-4-yl)phenyl)methanesulfonamide]",Ki range for both μ and σ1 (dual-binding class),< 0.5 µM
"CCC(=O)Nc1cccc(C2CCN(Cc3cn([C@@H]4c5ccccc5C[C@H]4O)nn3)CC2)c1 [Example 69, N-(3-(1-((1-((1R,2R)-2-hydroxy-2,3-dihydro-1H-inden-1-yl)-1H-1,2,3-triazol-4-yl)methyl)piperidin-4-yl)phenyl)propionamide]",μ and σ1 dual binding,++
"CC(C)S(=O)(=O)Nc1cccc(C2CCN(Cc3cn([C@@H]4c5ccccc5C[C@H]4O)nn3)CC2)c1 [Example 104, N-(3-(1-((1-((1R,2R)-2-hydroxy-2,3-dihydro-1H-inden-1-yl)-1H-1,2,3-triazol-4-yl)methyl)piperidin-4-yl)phenyl)propane-2-sulfonamide]",μ and σ1 dual binding,++
"CC(C)(O)COc1ccc(-n2cc(CN3CCC(c4cccc(O)c4)CC3)nn2)cc1 [Example 106, 3-(1-((1-(4-(2-hydroxy-2-methylpropoxy)phenyl)-1H-1,2,3-triazol-4-yl)methyl)piperidin-4-yl)phenol]",μ and σ1 dual binding,++
"Oc1cc(C2CCN(Cc3cn(Cc4ccccn4)nn3)CC2)ccc1F [Example 136, 2-fluoro-5-(1-((1-(pyridin-2-ylmethyl)-1H-1,2,3-triazol-4-yl)methyl)piperidin-4-yl)phenol]",Ki range for both μ and σ1 (dual-binding class),< 0.5 µM
"CS(=O)(=O)Nc1cccc(C2CCN(Cc3cc(Cc4ccccc4)no3)CC2)c1 [Example 178, N-(3-(1-((3-benzylisoxazol-5-yl)methyl)piperidin-4-yl)phenyl)methanesulfonamide]",Ki range for both μ and σ1 (dual-binding class),< 0.5 µM
"Oc1cccc(C2CCN(Cc3cn(-c4ccccc4F)nn3)CC2)c1 [Example 142, 3-(1-((1-(2-fluorophenyl)-1H-1,2,3-triazol-4-yl)methyl)piperidin-4-yl)phenol]",Ki range for both μ and σ1 (dual-binding class),< 0.1 µM
"CS(=O)(=O)Nc1cccc(C2CCN(Cc3cn([C@@H]4c5ccccc5C[C@H]4O)nn3)CC2)c1 (racemic) [Example 70, (±)-(trans)-N-(3-(1-((1-(2-hydroxy-2,3-dihydro-1H-inden-1-yl)-1H-1,2,3-triazol-4-yl)methyl)piperidin-4-yl)phenyl)methanesulfonamide]",μ and σ1 dual binding,++
"c1ccc(-n2cc(CN3CCC(c4ccc5cn[nH]c5c4)CC3)nn2)cc1 [Example 26, 6-(1-((1-phenyl-1H-1,2,3-triazol-4-yl)methyl)piperidin-4-yl)-1H-indazole]",μ and σ1 dual binding,++
"Oc1cccc(C2CCN(Cc3cn(Cc4ccccn4)nn3)CC2)c1 [Example 55, 3-(1-((1-(pyridin-2-ylmethyl)-1H-1,2,3-triazol-4-yl)methyl)piperidin-4-yl)phenol]",Ki range for both μ and σ1 (dual-binding class),< 0.5 µM
"Oc1ccc(C(F)(F)F)c(C2CCN(Cc3cn(-c4ccccc4)nn3)CC2)c1 [Example 12, 3-(1-((1-phenyl-1H-1,2,3-triazol-4-yl)methyl)piperidin-4-yl)-4-(trifluoromethyl)phenol]",μ and σ1 dual binding,++
"CS(=O)(=O)Nc1cccc(C2CCN(Cc3cn(-c4ccccc4)nn3)CC2)c1 [Example 62, N-(3-(1-((1-phenyl-1H-1,2,3-triazol-4-yl)methyl)piperidin-4-yl)phenyl)methanesulfonamide]",Ki range for both μ and σ1 (dual-binding class),< 0.1 µM
"CS(=O)(=O)Nc1cccc(C2CCN(Cc3cn(-c4ccccc4)nn3)CC2)c1F [Example 53, N-(2-fluoro-3-(1-((1-phenyl-1H-1,2,3-triazol-4-yl)methy)piperidin-4-yl)phenyl)methanesulfonamide]",Ki range for both μ and σ1 (dual-binding class),< 0.1 µM
"CC(C)S(=O)(=O)Nc1cccc(C2CCN(Cc3cn(C(CO)c4ccccc4)nn3)CC2)c1 (stereo not shown) [Example 130, N-(3-(1-((1-(2-hydroxy-1-phenylethyl)-1H-1,2,3-triazol-4-yl)methyl)piperidin-4-yl)phenyl)propane-2-sulfonamide]",μ and σ1 dual binding,++
"c1ccc(-n2cc(CN3CCC(c4cccc(Nc5nccs5)c4)CC3)nn2)cc1 [Example 225, N-(3-(1-((1-phenyl-1H-1,2,3-triazo1-4-yl)methyl)piperidin-4-yl)phenyl)thiazol-2-amine]",Ki range for both μ and σ1 (dual-binding class),< 0.1 µM
"CC1(n2cc(CN3CCC(c4cccc(O)c4)CC3)nn2)C(=O)Nc2ccccc21 (stereo not shown) [Example 95, 3-(4-((4-(3-hydroxyphenyl)piperidin-1-yl)methyl)-1H-1,2,3-triazol-1-yl)-3-methylindolin-2-one]",μ and σ1 dual binding,++
"CCC(=O)Nc1cccc(C2CCN(Cc3cn(-c4ccccc4)nn3)CC2)n1 [Example 190, N-(6-(1-((1-phenyl-1H-1,2,3-triazol-4-yl)methyl)piperidin-4-yl)pyridin-2-yl)propionamide]",Ki range for both μ and σ1 (dual-binding class),< 0.5 µM
"Oc1cccc(C2CCN(Cc3cn(Cc4ccc(F)cn4)cn3)CC2)c1 [Example 215, 3-(1-((1-((5-fluoropyridin-2-yl)methyl)-1H-imidazol-4-yl)methyl)piperidin-4-yl)phenol]",Ki range for both μ and σ1 (dual-binding class),< 0.5 µM

# — US9981942B2, “Piperidine derivatives having multimodal activity against pain” (LABORATORIOS DEL DR. ESTEVE S.A., priority 2013, dated 2018)
